Experiments:
[1] = system: rats; settings: exogenous melatonin administration, Cassone, et al., 1986; cited from earlier work
[2] = system: forskolin-stimulated accumulation of cAMP; experiment: Cyclic AMP accumulation in intact cells (block of forskolin-stimulated accumulation of cAMP); assay type: cell-based; settings: for EC50: 10 min, 37° C.; for Emax: relative to melatonin, read-out: I.A. (Intrinsic Activity) = Emax (experimental compound)/Emax (melatonin)
Source text: Further, the compounds are agonists as determined by their ability, like melatonin, to block the forskolin-stimulated accumulation of cAMP in certain cells.
Measurement of Functional Activity
Cyclic AMP Accumalation in Intact Cells: Melatonin
Remove media from cell flask and wash with Hank's salt solution or PBS as appropriate. Detach cells from flask using whatever means are used when splitting. Add enough media so that the concentration of cells is 4×10^5 /ml when counted with a hemocytometer (40 cells in the center square). This concentration of cells can Vary depending on the ultimate cAMP response of the type of cells used. Also, dialyzed fetal bovine serum (FBS) or heat inactivated FBS should be used in the-media when plating the cells in case endogenous substances are present in the FBS that might interfere with the test. Add 1 ml of cell suspension to each well (4×10^5 cells/well), then 2 mls of media and incubate cells overnight.
SOLUTIONS needed for cyclase:
1. Stock solution: plain media (no serum or additives) +20mM HEPES. (500 ml bottle media+10 mls of 1M HEPES GIBCO stock). This solution can be refrigerated and reused.
2. IBMX solution: media/HEPES+1 mM IBMX. (50 mls+11.1 mg IBMX, IBMX mw=222.2). This solution can be refrozen.
3. Assay solution: 90% stock solution+10% IBMX solution. Figure out the volume of solution needed for the assay. Each well gets 3 mls of assay solution for a preincubation and 3 mls for the actual assay, therefore, 6 mls/well. Each test condition is done in triplicate.
a) Basal 7 mls assay solution +[…]
b) Forskolin Stimulation: […]: 7 mls assay solution +[…] (stock solution in freezer, in DMSO)
c) Forskolin+competitor (melatonin): […]: 7 mls assay solution +[…]+desired concentration of competitor (melatonin). Solutions b) and c) can be combined when adding forskolin, then split before adding competitor.
All solutions should be warmed to 37° C. All test conditions are done in triplicate. Plates with cells are kept in a shallow 37° C. water bath throughout the reaction. Remove media from the wells and add 3 ml of preincubation media. After 10 min, remove that solution and add 3 mls of drug solution. After 10 min the media is removed and reaction stopped with 1 ml 0.1N HCl. Staggering the incubation is recommended. The preincubation step can be eliminated if the cells don't adhere well to the plate or the plates can be pretreated with extracellular matrix such as poly-D-lysine. Let samples set for at least an hour at room temperature. Remove 1 ml from dish and put into a microfuge tube. Do a 3 min spin to remove floating cells. Dilute 1:100 for RIA (this dilution will vary depending on the concentration curve of the RIA kit and the cAMP response and concentration of the cells). Do radioimmunoassay (Amersham: Cat.no. RPA.509).

[3] = system: [^125 I]-2-iodomelatonin binding; settings: comparative study; Copinga et al, J.Med. Chem., 1993, 36, 2891; cited from earlier work

| EC50 [2] [nM] | Structure (SMILES) | synchronization of circadian rhythms [1] | Emax [2] [%] | [125I]-2-iodomelatonin binding properties, in words [3] |
| --- | --- | --- | --- | --- |
| 3.4 | COc1cc(CCCNC(=O)C2CC2)ccc1Cl [Example 30, N-[3-(4-Chloro-3-methoxyphenyl)propyl]-cyclopropane carboxamide] |  | 98 |  |
| 4.9 | CCCC(=O)NCCCc1cccc(OC)c1 [Example 2, N-[3-(3-Methoxyphenyl)propyl]butanamide] |  | 95 |  |

Second part, the compound before the results:

| Structure (SMILES) | EC50 [2] [nM] | synchronization of circadian rhythms [1] | Emax [2] [%] | [125I]-2-iodomelatonin binding properties, in words [3] |
| --- | --- | --- | --- | --- |
| COc1ccc2[nH]cc(CCNC(C)=O)c2c1 [melatonin, N-acetyl-5-methoxytryptamine] |  | found to synchronize circadian rhythms in rats |  |  |
| COc1cccc(CCNC(C)=O)c1 [compound 10] |  |  |  | markedly inferior |
| COc1ccc(F)c(/C=C\CNC(=O)C(C)C)c1 [Example 7, cis-N-[3-(2-Fluoro-5-methoxyphenyl)-2-propenyl]-2-methylpropanamide] | 120 |  | 120 |  |
